{"source": "patent US20060258729A1", "about": "“Antibacterial pyrazole carboxylic acid hydrazides” (priority 2002, published 2006)", "key": {"B. subtilis pol IIIC": {"target": "T1, B. subtilis pol IIIC (Bacillus subtilis, UniProt P13267)", "T1 construct": "made in house", "T1 sequence (P13267 whole entry)": "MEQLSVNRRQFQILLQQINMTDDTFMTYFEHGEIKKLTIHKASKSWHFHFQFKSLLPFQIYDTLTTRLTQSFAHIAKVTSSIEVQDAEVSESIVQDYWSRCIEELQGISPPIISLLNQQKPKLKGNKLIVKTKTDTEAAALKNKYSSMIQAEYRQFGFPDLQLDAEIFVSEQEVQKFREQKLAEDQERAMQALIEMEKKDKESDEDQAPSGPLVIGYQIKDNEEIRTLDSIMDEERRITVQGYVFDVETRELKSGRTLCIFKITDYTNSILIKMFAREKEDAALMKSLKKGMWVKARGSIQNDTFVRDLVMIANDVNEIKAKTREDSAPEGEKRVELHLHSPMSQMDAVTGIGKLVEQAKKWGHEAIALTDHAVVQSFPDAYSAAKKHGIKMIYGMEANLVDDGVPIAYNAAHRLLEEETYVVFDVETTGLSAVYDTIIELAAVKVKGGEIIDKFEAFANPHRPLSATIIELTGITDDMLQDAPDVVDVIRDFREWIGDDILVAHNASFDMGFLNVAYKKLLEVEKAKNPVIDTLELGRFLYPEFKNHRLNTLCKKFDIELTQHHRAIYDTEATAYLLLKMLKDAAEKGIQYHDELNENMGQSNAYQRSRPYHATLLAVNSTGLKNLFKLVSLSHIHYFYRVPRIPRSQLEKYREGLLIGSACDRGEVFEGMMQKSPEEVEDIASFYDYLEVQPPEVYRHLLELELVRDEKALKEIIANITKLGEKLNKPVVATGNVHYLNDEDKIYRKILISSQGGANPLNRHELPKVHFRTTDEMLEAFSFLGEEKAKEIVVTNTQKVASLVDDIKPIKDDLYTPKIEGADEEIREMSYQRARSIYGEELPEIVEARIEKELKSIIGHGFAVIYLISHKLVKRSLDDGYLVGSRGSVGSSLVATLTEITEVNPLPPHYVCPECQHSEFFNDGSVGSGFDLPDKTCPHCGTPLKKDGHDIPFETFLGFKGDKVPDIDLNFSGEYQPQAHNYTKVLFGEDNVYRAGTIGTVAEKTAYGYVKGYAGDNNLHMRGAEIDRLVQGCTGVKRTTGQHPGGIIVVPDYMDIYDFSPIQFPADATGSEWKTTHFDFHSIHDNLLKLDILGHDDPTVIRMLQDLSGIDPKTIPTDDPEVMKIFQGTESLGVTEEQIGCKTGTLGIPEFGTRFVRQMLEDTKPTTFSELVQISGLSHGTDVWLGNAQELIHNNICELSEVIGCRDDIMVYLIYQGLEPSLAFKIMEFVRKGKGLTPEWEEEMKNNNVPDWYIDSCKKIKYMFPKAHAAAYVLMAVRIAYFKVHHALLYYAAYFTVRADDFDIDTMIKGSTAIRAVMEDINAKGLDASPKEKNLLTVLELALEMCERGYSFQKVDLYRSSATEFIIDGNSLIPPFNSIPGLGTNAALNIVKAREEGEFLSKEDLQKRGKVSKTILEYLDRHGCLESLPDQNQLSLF", "experiment": "DNA polymerase assay, B. subtilis pol IIIC", "type": "biochemical"}, "B. subtilis pol IIIE [1]": {"target": "T2, B. subtilis pol IIIE (Bacillus subtilis, UniProt O34623)", "T2 construct": "made in house", "T2 sequence (O34623 whole entry)": "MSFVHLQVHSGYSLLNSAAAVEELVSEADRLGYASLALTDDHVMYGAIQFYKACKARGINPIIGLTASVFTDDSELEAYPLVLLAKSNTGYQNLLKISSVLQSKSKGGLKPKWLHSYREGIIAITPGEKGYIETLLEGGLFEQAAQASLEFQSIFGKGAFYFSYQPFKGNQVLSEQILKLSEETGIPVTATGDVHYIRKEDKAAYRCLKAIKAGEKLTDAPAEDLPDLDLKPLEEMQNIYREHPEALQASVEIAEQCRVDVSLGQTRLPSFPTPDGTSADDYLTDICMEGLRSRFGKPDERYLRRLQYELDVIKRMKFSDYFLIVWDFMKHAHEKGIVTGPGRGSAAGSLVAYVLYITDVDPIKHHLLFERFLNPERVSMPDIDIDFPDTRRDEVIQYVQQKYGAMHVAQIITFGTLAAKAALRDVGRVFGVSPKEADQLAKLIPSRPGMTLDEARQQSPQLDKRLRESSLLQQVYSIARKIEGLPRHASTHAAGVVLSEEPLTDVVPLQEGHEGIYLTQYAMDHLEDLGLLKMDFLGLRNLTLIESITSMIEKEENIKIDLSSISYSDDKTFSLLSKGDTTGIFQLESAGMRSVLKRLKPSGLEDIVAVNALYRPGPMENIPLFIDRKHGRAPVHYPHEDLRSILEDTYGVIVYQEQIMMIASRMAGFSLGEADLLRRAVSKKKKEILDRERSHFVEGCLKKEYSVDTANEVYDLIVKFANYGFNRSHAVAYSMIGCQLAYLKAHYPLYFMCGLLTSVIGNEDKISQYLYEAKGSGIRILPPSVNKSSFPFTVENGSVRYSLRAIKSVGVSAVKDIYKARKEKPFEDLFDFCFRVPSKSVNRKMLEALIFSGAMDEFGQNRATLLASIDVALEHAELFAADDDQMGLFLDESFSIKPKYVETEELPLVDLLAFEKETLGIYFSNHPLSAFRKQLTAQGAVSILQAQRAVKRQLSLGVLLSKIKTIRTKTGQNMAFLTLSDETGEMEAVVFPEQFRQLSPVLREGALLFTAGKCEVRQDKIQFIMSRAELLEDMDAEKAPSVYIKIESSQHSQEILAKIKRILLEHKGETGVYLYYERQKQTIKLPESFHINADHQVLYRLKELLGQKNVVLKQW", "experiment": "DNA polymerase assay, B. subtilis pol IIIE", "type": "biochemical"}, "E. coli pol IIIE": {"target": "T3, E. coli pol IIIE (Escherichia coli, UniProt P10443)", "T3 construct": "purchased Enzyco, Denver, Colo", "T3 sequence (P10443 whole entry)": "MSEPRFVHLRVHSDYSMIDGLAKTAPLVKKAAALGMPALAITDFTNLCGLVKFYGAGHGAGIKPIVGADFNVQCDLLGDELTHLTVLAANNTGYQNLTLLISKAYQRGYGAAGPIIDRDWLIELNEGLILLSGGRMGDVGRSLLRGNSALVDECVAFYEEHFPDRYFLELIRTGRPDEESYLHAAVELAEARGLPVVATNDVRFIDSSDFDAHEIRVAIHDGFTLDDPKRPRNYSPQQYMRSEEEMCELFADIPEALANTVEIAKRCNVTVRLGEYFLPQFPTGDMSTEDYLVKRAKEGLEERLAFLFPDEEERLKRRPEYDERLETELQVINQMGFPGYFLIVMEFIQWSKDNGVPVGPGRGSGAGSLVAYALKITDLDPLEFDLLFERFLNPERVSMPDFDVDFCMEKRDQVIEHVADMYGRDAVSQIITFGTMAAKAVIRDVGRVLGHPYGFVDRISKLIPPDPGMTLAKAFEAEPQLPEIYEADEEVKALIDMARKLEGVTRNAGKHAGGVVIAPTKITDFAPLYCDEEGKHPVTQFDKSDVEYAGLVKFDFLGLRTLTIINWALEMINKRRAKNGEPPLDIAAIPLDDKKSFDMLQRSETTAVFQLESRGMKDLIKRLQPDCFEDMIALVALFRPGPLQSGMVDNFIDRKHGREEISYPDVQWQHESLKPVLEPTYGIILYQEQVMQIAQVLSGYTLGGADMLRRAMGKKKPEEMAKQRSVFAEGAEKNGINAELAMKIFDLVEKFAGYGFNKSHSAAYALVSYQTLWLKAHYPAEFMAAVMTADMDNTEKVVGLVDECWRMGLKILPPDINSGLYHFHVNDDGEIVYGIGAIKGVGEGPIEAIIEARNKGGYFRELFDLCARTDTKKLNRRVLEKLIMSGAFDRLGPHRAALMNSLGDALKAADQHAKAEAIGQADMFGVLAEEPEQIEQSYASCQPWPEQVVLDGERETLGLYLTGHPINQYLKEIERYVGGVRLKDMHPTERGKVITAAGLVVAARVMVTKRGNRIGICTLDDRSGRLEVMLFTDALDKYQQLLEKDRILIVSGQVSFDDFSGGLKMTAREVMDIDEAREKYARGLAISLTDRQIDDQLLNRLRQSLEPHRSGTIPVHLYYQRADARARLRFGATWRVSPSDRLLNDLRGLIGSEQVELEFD", "experiment": "DNA polymerase assay, E. coli pol IIIE", "type": "biochemical", "details": "80 μg/mL (190-260 μM) final concentration; all four dNTPs", "summary_of_the_method": "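Incorporation of 3H label into activated calf thymus DNA (0.4 mg/mL) from 10 μM of all four dNTPs, 10 min at 30 °C in pH 7.5 Tris/magnesium acetate, compounds in 1% DMSO. Reactions started with 0.025–0.06 units recombinant polymerase, stopped with cold TCA; IC50 and percent inhibition relative to DMSO control.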"}, "[2]": {"test_system": "Bacillus subtilis strain BD54", "experiment": "Inhibition of bacterial growth (MIC), Bs", "type": "cell-based", "details": "16 to 18 hours, 37° C., read-out: Minimum Inhibitory Concentration for Bacterial Growth, Bs", "summary_of_the_method": "(§1)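 Log-phase cultures were diluted to 1×10^5 CFU/mL in LB or BHI medium and exposed to two-fold serial compound dilutions (usually 80-0.078 μg/mL, 11 concentrations) with 1% DMSO final. After shaking incubation at 37° C. for 16 to 18 hours, growth was read as OD at 570 nm.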"}, "[3]": {"test_system": "Staphylococcus aureus strain IP 8", "experiment": "Inhibition of bacterial growth (MIC), Sa", "type": "cell-based", "details": "IP8, 16 to 18 hours, 37° C., read-out: Minimum Inhibitory Concentration for Bacterial Growth, Sa", "summary_of_the_method": "as §1"}, "[4]": {"test_system": "Enterococcus faecalis strain 29212", "experiment": "Inhibition of bacterial growth (MIC), Efcl", "type": "cell-based", "details": "16 to 18 hours, 37° C., read-out: Minimum Inhibitory Concentration for Bacterial Growth, Efcl", "summary_of_the_method": "as §1"}, "[5]": {"test_system": "E. faecium clinical isolate", "experiment": "Inhibition of bacterial growth (MIC), Efcm", "type": "cell-based", "details": "Enterococcus faecium, 16 to 18 hours, 37° C., read-out: Minimum Inhibitory Concentration for Bacterial Growth, Efcm", "summary_of_the_method": "as §1"}, "[6]": {"test_system": "vancomycin-resistant Enterococcus strain B42762", "experiment": "Inhibition of bacterial growth (MIC), VRE", "type": "cell-based", "details": "VRE, 16 to 18 hours, 37° C., read-out: Minimum Inhibitory Concentration for Bacterial Growth, VRE", "summary_of_the_method": "as §1"}, "[7]": {"test_system": "Escherichia coli strain J53", "experiment": "Inhibition of bacterial growth (MIC), Ec", "type": "cell-based", "details": "16 to 18 hours, 37° C., read-out: Minimum Inhibitory Concentration for Bacterial Growth, Ec", "summary_of_the_method": "as §1"}, "test strains of bacteria": {"test_system": "test strains of bacteria", "experiment": "Inhibition of bacterial growth, whole panel of test strains", "type": "cell-based", "experimental": "Each compound was assayed against a panel of a strain of Bacillus subtilis, of strains of antibiotic-resistant and sensitive Enterococcus and Staphylococcus species, and of a strain of the Gram-negative bacterium Escherichia coli. Compounds were dissolved in DMSO at 100× the desired highest concentration and added to one well of a 96-well microassay plate. Two-fold serial drug dilutions were made across the plate in DMSO to yield 11 concentrations (usually 80-0.078 μg/mL) plus an untreated control. Drugs were then transferred to fresh plates using 1.5 μL per well. Log phase cultures were diluted to yield a concentration of 1×10^5 colony forming units/mL in either LB or BHI medium and transferred to the plates containing drug for a final volume of 150 μL. Each well, including the DMSO controls, contained a final concentration of 1% DMSO. Plates were incubated with shaking at 37° C. for 16 to 18 hours. Cell growth was determined by measuring optical density (570 nm, 1 cm path length) in a microplate reader. MIC (minimum inhibitory concentration) is equivalent to the lowest concentration at which growth is not observed. The bacterial strains and MIC determinations have been well characterized and are described elsewhere (Tarantino et al., Antimicrob. Agents Chemother., 43: 1982-1987 (1999); Daly et al., Antimicrob. Agents Chemother., 44: 2217-2221 (2000))."}, "B. subtilis pol IIIE [8]": {"target": "T2, B. subtilis pol IIIE", "experiment": "DNA polymerase assay, B. subtilis pol IIIE", "type": "biochemical", "remark": "listed apart in the source"}}}
{"smiles": "COc1ccc(-c2cc(C(=O)NN=Cc3cc(OC)c(OC)c(OC)c3)[nH]n2)cc1", "note": "[Compound 17]", "values": [{"measurement": "IC50", "setting": "B. subtilis pol IIIC; B. subtilis Pol IIIC IC50, 4 dNTPs, in the presence of all four dNTP substrates", "result": 36, "unit": "µM"}, {"measurement": "IC50", "setting": "B. subtilis pol IIIC; B. subtilis Pol IIIC IC50, −dATP, in the absence of dATP", "result": 3.1, "unit": "µM"}, {"measurement": "IC50", "setting": "B. subtilis pol IIIC; B. subtilis Pol IIIC IC50, −dCTP, in the absence of dCTP", "result": 2.6, "unit": "µM"}, {"measurement": "IC50", "setting": "B. subtilis pol IIIC; B. subtilis Pol IIIC IC50, −dGTP, in the absence of dGTP", "result": 1.8, "unit": "µM"}, {"measurement": "inhibition at 80 µg/mL", "setting": "B. subtilis pol IIIE [1]; 80 μg/mL (190-260 μM) final concentration, all four dNTPs, read-out: Percent Enzymatic Inhibition B. subtilis pol IIIE", "result": "> 20", "unit": "%"}, {"measurement": "IC50", "setting": "B. subtilis pol IIIE [1]; B. subtilis Pol IIIE IC50, 4 dNTPs, in the presence of all four dNTP substrates", "result": "> 780", "unit": "µM"}, {"measurement": "Percent Enzymatic Inhibition E. coli pol IIIE", "setting": "E. coli pol IIIE", "result": "Inactive"}, {"measurement": "MIC", "setting": "[2]", "result": 0.625, "unit": "µg/mL"}, {"measurement": "MIC", "setting": "[3]", "result": 1.25, "unit": "µg/mL"}, {"measurement": "MIC", "setting": "[4]", "result": 20, "unit": "µg/mL"}, {"measurement": "MIC", "setting": "[5]", "result": 5, "unit": "µg/mL"}, {"measurement": "MIC", "setting": "[6]", "result": 5, "unit": "µg/mL"}, {"measurement": "MIC", "setting": "[7]", "result": "> 80", "unit": "µg/mL"}, {"measurement": "Inhibition of bacterial growth, result in words (rank of MIC values)", "setting": "test strains of bacteria", "result": "lowest MIC values"}, {"measurement": "IC50", "setting": "B. subtilis pol IIIE [8]; B. subtilis Pol IIIE IC50, −dATP, in the absence of dATP", "result": "> 780", "unit": "µM"}, {"measurement": "IC50", "setting": "B. subtilis pol IIIE [8]; B. subtilis Pol IIIE IC50, −dCTP, in the absence of dCTP", "result": "> 780", "unit": "µM"}, {"measurement": "IC50", "setting": "B. subtilis pol IIIE [8]; B. subtilis Pol IIIE IC50, −dGTP, in the absence of dGTP", "result": "> 780", "unit": "µM"}]}
